Measured values published in article PMC5011342, “A high throughput drug screening assay to identify compounds that promote oligodendrocyte differentiation using acutely dissociated and purified oligodendrocyte precursor cells” (BMC Research Notes, 2016).
Read-outs that look alike come from different tables or passages of the source.

Experiments:
[1] = system: acutely dissociated and purified rat OPCs; experiment: Acute OL differentiation assay (MBP expression/cell, immunofluorescent image quantification); assay type: cell-based; conditions: sheet "All OLga data"; for activation at 0.4 µM / activation at 2 µM / activation at 10 µM / activation at 0.08 µM: Rattus norvegicus
Method in brief: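 Oligodendrocyte precursor cells were enriched from P6-P7 Sprague–Dawley rat brains by immunopanning (RAN-2 and GalC depletion, O4 selection), plated at 5000 cells/well in serum-free, mitogen-free differentiation media on PDL/laminin 96-well view plates, centrifuged at 200×g, and pre-incubated 1–2 h before test compounds were added in quadruplicate. On DIV4, cells were fixed, stained for MBP and DAPI, imaged automatically, and MBP expression per cell was quantified.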

[2] = system: expanded OPCs; experiment: cells; conditions: for viability at 0.1 µM / viability at 1 µM / viability at 10 µM: Rattus norvegicus, 72 h
Method in brief: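 Expanded OPCs seeded at 10,000 cells/well in differentiation media, then exposed to NCC library compounds at 10, 1 and 0.1 µM (quadruplicate, 0.1% DMSO) for three days. Viability read as alamarBlue fluorescence (560/590 nm) after 4 h at 37 °C; tunicamycin 5 ng/ml served as toxicity control.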

[3] = 0.4 uM test compound, relative to quetiapine, read-out: OL differentiation, 0.4 uM (% Quet)
[4] = 2 uM test compound, relative to quetiapine, read-out: OL differentiation, 2 uM (% Quet)
[5] = read-out: 0.1 µM (% DMSO), alamarBlue viability, NCC library compound at 0.1 µM, sheet "All Tox data"
[6] = read-out: 1 µM (% DMSO), alamarBlue viability, NCC library compound at 1 µM, sheet "All Tox data"
[7] = read-out: 10 µM (% DMSO), alamarBlue viability, NCC library compound at 10 µM, sheet "All Tox data"
[8] = test compound at 2 uM, NCC library screen, relative to quetiapine
[9] = alamarBlue viability, NCC library compound at 0.1 µM, sheet "All Tox data"
[10] = alamarBlue viability, NCC library compound at 1 µM, sheet "All Tox data"
[11] = alamarBlue viability, NCC library compound at 10 µM, sheet "All Tox data"
[12] = 10 uM test compound, relative to quetiapine, read-out: OL differentiation, 10 uM (% Quet)
[13] = read-out: 0.1 µM (% DMSO), alamarBlue viability of expanded OPCs, compound at 0.1 µM, sheet All Tox data
[14] = read-out: 1 µM (% DMSO), alamarBlue viability of expanded OPCs, compound at 1 µM, sheet All Tox data
[15] = read-out: 10 µM (% DMSO), alamarBlue viability of expanded OPCs, compound at 10 µM, sheet All Tox data
[16] = test compound at 2 uM, NCC library screen, relative to quetiapine, read-out: 2 uM (% Quet)
[17] = test compound at 10 uM, NCC library screen, relative to quetiapine, read-out: 10 uM (% Quet)
[18] = alamarBlue viability of expanded OPCs, compound at 0.1 µM, relative to DMSO control
[19] = alamarBlue viability of expanded OPCs, compound at 1 µM, relative to DMSO control
[20] = alamarBlue viability of expanded OPCs, compound at 10 µM, relative to DMSO control
[21] = test compound at 0.4 uM, NCC library screen, relative to quetiapine, read-out: 0.4 uM (% Quet)

| SMILES | activation at 2 µM [1, 4] [%] | viability at 0.1 µM [2, 5] [%] | viability at 1 µM [2, 6] [%] | viability at 10 µM [2, 7] [%] | activation at 10 µM [1, 12] [%] | viability at 0.1 µM [2, 13] [%] | viability at 1 µM [2, 14] [%] | viability at 10 µM [2, 15] [%] | also measured |
| --- | --- | --- | --- | --- | --- | --- | --- | --- | --- |
| COC(=O)C1=C(C)NC(C)=C(C(=O)OC(C)C)C1c1cccc2nonc12 (centres unmarked) [Isradipine] | -6.1 | 89.4 | 80.5 | 45.6 | – | – | – | – | activation at 0.4 µM [1, 3]: -7.2% |
| O=C(O)C[C@H](O)C[C@H](O)/C=C/c1c(C2CC2)nc2ccccc2c1-c1ccc(F)cc1 [Itavastain] | – | – | – | – | – | – | – | – | 0.4 uM (% Quet) ([1]; test compound at 0.4 uM, NCC library screen, relative to quetiapine): -60.9 % Quet; 2 uM (% Quet) [1, 8]: -74.4 % Quet; 0.1 µM (% DMSO) [2, 9]: 114.3 % DMSO; 1 µM (% DMSO) [2, 10]: 70.7 % DMSO; 10 µM (% DMSO) [2, 11]: 19.8 % DMSO |
| COc1ccc(C(=O)NCc2ccc(OCCN(C)C)cc2)cc1OC [Itopride] | -2.3 | 112 | 97.5 | 87.1 | 2 | – | – | – | – |
| CCC(C)n1ncn(-c2ccc(N3CCN(c4ccc(OCC5COC(Cn6cncn6)(c6ccc(Cl)cc6Cl)O5)cc4)CC3)cc2)c1=O (centres unmarked) [Itraconazole] | – | – | – | – | – | 86.1 | 29.2 | 26.2 | activation at 0.08 µM ([1]; 0.08 uM test compound, relative to quetiapine, read-out: OL differentiation, 0.08 uM (% Quet)): 2.8%; activation at 0.4 µM [1, 3]: -174% |
| CN(CCO)CC(O)Cn1cnc2c1c(=O)n(C)c(=O)n2C (centres unmarked) [Jupal] | – | – | – | – | – | – | – | – | 2 uM (% Quet) [1, 8]: 0.8 % Quet; 10 uM (% Quet) ([1]; test compound at 10 uM, NCC library screen, relative to quetiapine): 6.5 % Quet; 0.1 µM (% DMSO) [2, 9]: 92.2 % DMSO; 1 µM (% DMSO) [2, 10]: 91.0 % DMSO; 10 µM (% DMSO) [2, 11]: 92.4 % DMSO |
| CC(=O)N1CCN(c2ccc(OCC3COC(Cn4ccnc4)(c4ccc(Cl)cc4Cl)O3)cc2)CC1 (centres unmarked) [Ketoconazole] | 16.5 | – | – | – | -67.7 | 98.1 | 126 | 109 | – |
| CC(C(=O)O)c1cccc(C(=O)c2ccccc2)c1 (centres unmarked) [Ketoprofen] | – | – | – | – | – | – | – | – | activation at 2 µM [1, 16]: 0.75%; activation at 10 µM [1, 17]: -29.2%; 0.1 µM (% DMSO) [2, 18]: 90.4 % DMSO; 1 µM (% DMSO) [2, 19]: 89.7 % DMSO; 10 µM (% DMSO) [2, 20]: 95.0 % DMSO |
| O=C(c1ccccc1)c1ccc2n1CCC2C(=O)O (centres unmarked) [Ketorolac] | – | 97.7 | 102 | 103 | – | – | – | – | activation at 2 µM [1, 16]: 16.3%; activation at 10 µM [1, 17]: -1.3% |
| CN1CCC(=C2c3ccccc3CC(=O)c3sccc32)CC1 [Ketotifen] | – | 85.1 | 72.7 | 36.9 | – | – | – | – | activation at 0.4 µM [1, 21]: -11.2%; activation at 2 µM [1, 16]: 0.04% |
| [H]/N=C(/NC)NCCC[C@H](N)C(=O)O [L-NMMA] | 3 | – | – | – | 7.7 | 84.1 | 92.4 | 93 | – |
| CCCc1c(OCCCCc2nnn[nH]2)ccc(C(C)=O)c1O [LY 171883] | -33.3 | – | – | – | -5.4 | 79.7 | 81.3 | 86.1 | – |
| CC(CCc1ccccc1)NCC(O)c1ccc(O)c(C(N)=O)c1 (centres unmarked) [Labetalol] | – | 92.7 | 79.2 | 47.3 | – | – | – | – | activation at 0.4 µM [1, 21]: -5.2%; activation at 2 µM [1, 16]: -15.3% |
| CCOC(=O)C1=C(C)NC(C)=C(C(=O)OCC)C1c1ccccc1/C=C/C(=O)OC(C)(C)C [Lacidipine] | – | 64.4 | 55.3 | 8.7 | – | – | – | – | activation at 0.08 µM ([1]; test compound at 0.08 uM, NCC library screen, relative to quetiapine, read-out: 0.08 uM (% Quet)): -1.1%; activation at 0.4 µM [1, 21]: -11.2% |
| Nc1ccn([C@@H]2CS[C@H](CO)O2)c(=O)n1 [Lamivudine] | -2.4 | – | – | – | -27.9 | 87.3 | 96 | 113 | activation at 2 µM ([1]; test compound at 2 uM, MBP expression relative to quetiapine, NCC library screen, read-out: 2 uM (% Quet)): 2.9%; activation at 10 µM ([1]; test compound at 10 uM, MBP expression relative to quetiapine, NCC library screen, read-out: 10 uM (% Quet)): -9.8%; 0.1 µM (% DMSO) [2, 18]: 94.3 % DMSO; 1 µM (% DMSO) [2, 19]: 88.1 % DMSO; 10 µM (% DMSO) [2, 20]: 79.4 % DMSO |
| Nc1nnc(-c2cccc(Cl)c2Cl)c(N)n1 [Lamotrigine] | -14.6 | – | – | – | -8.7 | 94.8 | 104 | 99.5 | – |
